Measurements reported in BigSolDB 2.1.

Q: For `O=C(O)c1ccc(C(=O)O)o1`, which solubility (mole fraction) (in 1,2-dimethoxyethane, 303.15 K) is on record?
A: 0.00344

Q: What about the solubility (mole fraction) (in 1,2-dimethoxyethane, 308.15 K) of the same compound?
A: 0.00372

Q: And the solubility (mole fraction) (in 1,2-dimethoxyethane, 313.15 K)?
A: 0.0039

Q: And the solubility (mole fraction) (in 1,2-dimethoxyethane, 318.15 K)?
A: 0.0041

Q: What about the solubility (mole fraction) (in 1,2-dimethoxyethane, 323.15 K) of the same compound?
A: 0.00432

Q: And the solubility (mole fraction) (in 1,2-dimethoxyethane, 328.15 K)?
A: 0.00458

Q: And the solubility (mole fraction) (in 1,2-dimethoxyethane, 333.15 K)?
A: 0.00487

Q: And the solubility (mole fraction) (in 1,2-dimethoxyethane, 338.15 K)?
A: 0.00528

Q: And the solubility (mole fraction) (in 1,2-dimethoxyethane, 343.15 K)?
A: 0.00558

Q: What about the solubility (mole fraction) (in 1,4-dioxane, 303.15 K) of the same compound?
A: 0.00421

Q: And the solubility (mole fraction) (in 1,4-dioxane, 308.15 K)?
A: 0.00458

Q: And the solubility (mole fraction) (in 1,4-dioxane, 313.15 K)?
A: 0.00481

Q: And the solubility (mole fraction) (in 1,4-dioxane, 318.15 K)?
A: 0.00521

Q: What about the solubility (mole fraction) (in 1,4-dioxane, 323.15 K) of the same compound?
A: 0.00573

Q: What about the solubility (mole fraction) (in 1,4-dioxane, 328.15 K) of the same compound?
A: 0.00631

Q: And the solubility (mole fraction) (in 1,4-dioxane, 333.15 K)?
A: 0.00739

Q: What about the solubility (mole fraction) (in 1,4-dioxane, 338.15 K) of the same compound?
A: 0.00827

Q: And the solubility (mole fraction) (in 1,4-dioxane, 343.15 K)?
A: 0.00886

Q: What about the solubility (mole fraction) (in THF, 293.15 K) of the same compound?
A: 0.00772

Q: What about the solubility (mole fraction) (in THF, 298.15 K) of the same compound?
A: 0.00826

Q: And the solubility (mole fraction) (in THF, 303.15 K)?
A: 0.00884

Q: And the solubility (mole fraction) (in THF, 308.15 K)?
A: 0.00939

Q: And the solubility (mole fraction) (in THF, 313.15 K)?
A: 0.00998

Q: What about the solubility (mole fraction) (in THF, 318.15 K) of the same compound?
A: 0.0108

Q: And the solubility (mole fraction) (in THF, 323.15 K)?
A: 0.0116

Q: What about the solubility (mole fraction) (in THF, 328.15 K) of the same compound?
A: 0.0122

Q: And the solubility (mole fraction) (in THF, 333.15 K)?
A: 0.0128

Q: What about the solubility (mole fraction) (in diglyme, 303.15 K) of the same compound?
A: 0.00653

Q: What about the solubility (mole fraction) (in diglyme, 308.15 K) of the same compound?
A: 0.00704

Q: And the solubility (mole fraction) (in diglyme, 313.15 K)?
A: 0.00735

Q: And the solubility (mole fraction) (in diglyme, 318.15 K)?
A: 0.00767

Q: What about the solubility (mole fraction) (in diglyme, 323.15 K) of the same compound?
A: 0.00801

Q: What about the solubility (mole fraction) (in diglyme, 328.15 K) of the same compound?
A: 0.00842

Q: What about the solubility (mole fraction) (in diglyme, 333.15 K) of the same compound?
A: 0.00887

Q: What about the solubility (mole fraction) (in diglyme, 338.15 K) of the same compound?
A: 0.00937

Q: And the solubility (mole fraction) (in diglyme, 343.15 K)?
A: 0.00965

Q: What about the solubility (mole fraction) (in diglyme, 348.15 K) of the same compound?
A: 0.0103

Q: And the solubility (mole fraction) (in diglyme, 353.15 K)?
A: 0.0105
